Results: PubChem BioAssay (NCI)
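How tested: cells in 96-well plates exposed to compound for 48 hours at five concentrations. TGI: concentration producing complete growth inhibition.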

Experiments:
Assay in all cases: NCI tumour cell line growth inhibition, 48 h
HT29 colon = tested on: HT29 colon
CAKI-1 renal = tested on: CAKI-1 renal
RPMI-8226 leukemia = tested on: RPMI-8226 leukemia
SK-MEL-5 melanoma = tested on: SK-MEL-5 melanoma
HOP-62 NSCLC = tested on: HOP-62 NSCLC
CCRF-CEM leukemia = tested on: CCRF-CEM leukemia
SW-620 colon = tested on: SW-620 colon
OVCAR-3 ovarian = tested on: OVCAR-3 ovarian
SF-539 CNS = tested on: SF-539 CNS
HL-60(TB) leukemia = tested on: HL-60(TB) leukemia
NCI-H226 lung = tested on: NCI-H226 lung
OVCAR-8 ovarian = tested on: OVCAR-8 ovarian
SNB-75 CNS = tested on: SNB-75 CNS

Structure (SMILES)	TGI (HT29 colon) [µM]	TGI (CAKI-1 renal) [µM]	TGI (RPMI-8226 leukemia) [µM]	TGI (SK-MEL-5 melanoma) [µM]	TGI (HOP-62 NSCLC) [µM]	TGI (CCRF-CEM leukemia) [µM]	TGI (SW-620 colon) [µM]	TGI (OVCAR-3 ovarian) [µM]	TGI (SF-539 CNS) [µM]	TGI (HL-60(TB) leukemia) [µM]	TGI (NCI-H226 lung) [µM]	TGI (OVCAR-8 ovarian) [µM]	TGI (SNB-75 CNS) [µM]
C=C1CC/C=C(/C(=O)O)CC[C@H]2[C@@H]1CC2(C)C	> 100	> 100	> 100	> 100	> 100	> 100	> 100	> 100	> 100	> 100	> 100		
CC(C)(C)OC(=O)C1=C(C(=O)OC(C)(C)C)SC2(S1)C(C(=O)OC(C)(C)C)=C(C(=O)OC(C)(C)C)Sc1c2ssc1=O	> 100	> 100	> 100	> 100	> 100	> 100	> 100	> 100		> 100		> 100	
N#CCCC(CC#N)N1CCN(CCO)CC1 (stereo not drawn)	> 100		> 100	> 100	> 100	> 100	> 100		> 100	> 100	> 100	> 100	> 100
CC(C)CCCC(C)[C@H]1CC[C@H]2[C@@H]3CC[C@H]4C[C@@H](CCC=C(c5cc(Cl)c(O)c(C(=O)OC(C)(C)C)c5)c5cc(Cl)c(O)c(C(=O)OC(C)(C)C)c5)CC[C@]4(C)[C@H]3CC[C@]12C (stereo partly drawn)	> 50	> 50	> 50	> 50	> 50	> 50	> 50	> 50	> 50	> 50			> 50
CN1N=C2c3ccccc3CC[C@H]2C1c1ccccc1 (stereo partly drawn)	> 100		> 100		> 100	> 100	> 100	> 100	> 100	> 100	> 100	> 100	
COC1(OC)N=C(N)C2(C#N)C(C)CC(=O)N(N(C)C)C12C#N (stereo not drawn)	> 100	> 100	> 100	> 100	> 100	> 100	> 100		> 100	> 100	> 100	> 100	> 100
COc1cccc(NCC(=O)Nn2c(-c3ccccc3)nc3ccccc3c2=O)c1	> 100		> 100	> 100	> 100	> 100	> 100	> 100	> 100	> 100	> 100	> 100	> 100
O=C(O)Cc1ccc(N2N=C(c3ccccc3)CC2=O)cc1	> 100	> 100		> 100	> 100	> 100	> 100	> 100		> 100	> 100	> 100	> 100
Nc1nc2c(ncn2CCOC(c2ccccc2)P(=O)(O)O)c(=O)[nH]1 (stereo not drawn)	> 100	> 100		> 100			> 100	> 100	> 100	> 100	> 100	> 100	> 100
